Assay results taken from ChEMBL document CHEMBL3991601, “The target landscape of clinical kinase drugs” (Science, 2017).
The source made the active and inactive calls. Rule as the data show it, for most assays here: actives have a measured Kd and inactives only a lower limit.

Columns and labels:
[1] = target: Mitotic checkpoint serine/threonine-protein kinase BUB1 (Homo sapiens, UniProt O43683)
dCTP pyrophosphatase 1 = target: T1, dCTP pyrophosphatase 1 (Homo sapiens, UniProt Q9H773)
T1 sequence (Q9H773 whole entry): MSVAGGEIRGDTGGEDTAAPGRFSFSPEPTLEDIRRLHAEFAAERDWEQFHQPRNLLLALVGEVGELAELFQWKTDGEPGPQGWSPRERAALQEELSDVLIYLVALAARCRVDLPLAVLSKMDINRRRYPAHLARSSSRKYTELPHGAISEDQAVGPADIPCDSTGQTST

[2] = target: Putative heat shock protein HSP 90-beta 2 (Homo sapiens, UniProt Q58FF8)
Sequence of Putative heat shock protein HSP 90-beta 2 (Q58FF8 whole entry): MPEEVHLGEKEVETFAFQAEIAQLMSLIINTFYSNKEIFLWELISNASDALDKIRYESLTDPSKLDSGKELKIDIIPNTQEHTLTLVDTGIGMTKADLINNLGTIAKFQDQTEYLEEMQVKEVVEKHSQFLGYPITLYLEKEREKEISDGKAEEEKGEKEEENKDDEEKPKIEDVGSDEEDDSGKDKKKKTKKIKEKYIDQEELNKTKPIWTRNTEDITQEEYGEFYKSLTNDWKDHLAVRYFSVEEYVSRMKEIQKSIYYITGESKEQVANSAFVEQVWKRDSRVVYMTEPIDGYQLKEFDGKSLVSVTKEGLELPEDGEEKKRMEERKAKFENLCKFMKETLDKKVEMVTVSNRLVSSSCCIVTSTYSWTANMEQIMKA

[3] = target: T2, Dual specificity mitogen-activated protein kinase kinase 5 (Homo sapiens, UniProt Q13163)
T2 sequence (Q13163 whole entry): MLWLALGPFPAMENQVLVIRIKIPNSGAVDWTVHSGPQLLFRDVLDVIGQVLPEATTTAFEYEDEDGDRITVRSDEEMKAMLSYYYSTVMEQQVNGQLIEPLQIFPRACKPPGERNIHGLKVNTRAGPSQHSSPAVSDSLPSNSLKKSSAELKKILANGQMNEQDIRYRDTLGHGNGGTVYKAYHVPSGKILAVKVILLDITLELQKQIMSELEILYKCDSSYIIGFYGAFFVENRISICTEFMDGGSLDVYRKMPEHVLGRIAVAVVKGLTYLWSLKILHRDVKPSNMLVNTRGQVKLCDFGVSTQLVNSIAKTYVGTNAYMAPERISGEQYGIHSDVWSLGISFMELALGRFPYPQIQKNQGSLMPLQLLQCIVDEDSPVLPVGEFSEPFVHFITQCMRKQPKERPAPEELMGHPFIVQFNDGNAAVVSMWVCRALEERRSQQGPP

[4] = target: T3, Mitogen-activated protein kinase 15 (Homo sapiens, UniProt Q8TD08)
T3 sequence (Q8TD08 whole entry): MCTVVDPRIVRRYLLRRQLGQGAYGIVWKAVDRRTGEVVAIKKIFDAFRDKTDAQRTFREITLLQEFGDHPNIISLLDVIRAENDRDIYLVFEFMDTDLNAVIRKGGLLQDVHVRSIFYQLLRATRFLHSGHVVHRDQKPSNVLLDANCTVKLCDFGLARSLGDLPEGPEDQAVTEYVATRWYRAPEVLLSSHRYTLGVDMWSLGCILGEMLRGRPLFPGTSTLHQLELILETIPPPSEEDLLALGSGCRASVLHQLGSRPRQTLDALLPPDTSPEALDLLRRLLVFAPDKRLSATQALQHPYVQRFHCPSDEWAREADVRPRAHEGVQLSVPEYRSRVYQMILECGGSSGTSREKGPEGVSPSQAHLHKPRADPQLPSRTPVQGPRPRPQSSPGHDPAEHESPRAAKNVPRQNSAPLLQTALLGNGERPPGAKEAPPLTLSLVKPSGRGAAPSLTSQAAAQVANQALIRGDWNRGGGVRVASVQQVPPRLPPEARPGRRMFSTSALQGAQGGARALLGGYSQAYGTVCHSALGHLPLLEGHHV

[5] = target: T4, ATP-dependent 6-phosphofructokinase, platelet type (Homo sapiens, UniProt Q01813)
T4 sequence (Q01813 whole entry): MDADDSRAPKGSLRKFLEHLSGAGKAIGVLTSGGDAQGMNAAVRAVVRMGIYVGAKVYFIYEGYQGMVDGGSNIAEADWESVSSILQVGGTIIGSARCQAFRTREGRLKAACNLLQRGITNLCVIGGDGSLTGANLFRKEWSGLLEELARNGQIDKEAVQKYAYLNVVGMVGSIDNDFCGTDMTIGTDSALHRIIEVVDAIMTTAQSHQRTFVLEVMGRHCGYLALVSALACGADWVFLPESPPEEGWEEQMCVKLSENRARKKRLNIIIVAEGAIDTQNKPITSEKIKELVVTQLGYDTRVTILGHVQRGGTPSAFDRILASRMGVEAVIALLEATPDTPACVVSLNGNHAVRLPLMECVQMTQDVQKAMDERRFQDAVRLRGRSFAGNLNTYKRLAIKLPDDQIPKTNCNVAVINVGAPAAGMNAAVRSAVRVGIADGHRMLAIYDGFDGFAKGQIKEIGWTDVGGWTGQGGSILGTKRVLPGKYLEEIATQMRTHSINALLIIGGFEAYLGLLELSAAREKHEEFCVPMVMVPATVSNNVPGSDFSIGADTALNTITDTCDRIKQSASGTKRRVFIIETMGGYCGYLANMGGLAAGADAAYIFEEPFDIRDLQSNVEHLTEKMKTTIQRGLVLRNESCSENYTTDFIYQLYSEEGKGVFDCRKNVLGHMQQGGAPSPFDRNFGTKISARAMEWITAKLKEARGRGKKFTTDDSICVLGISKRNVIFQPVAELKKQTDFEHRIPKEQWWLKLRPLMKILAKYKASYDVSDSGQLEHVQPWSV

[6] = target: Protein-tyrosine kinase 6 (Homo sapiens, UniProt Q13882)
Sequence of Protein-tyrosine kinase 6 (Q13882 whole entry): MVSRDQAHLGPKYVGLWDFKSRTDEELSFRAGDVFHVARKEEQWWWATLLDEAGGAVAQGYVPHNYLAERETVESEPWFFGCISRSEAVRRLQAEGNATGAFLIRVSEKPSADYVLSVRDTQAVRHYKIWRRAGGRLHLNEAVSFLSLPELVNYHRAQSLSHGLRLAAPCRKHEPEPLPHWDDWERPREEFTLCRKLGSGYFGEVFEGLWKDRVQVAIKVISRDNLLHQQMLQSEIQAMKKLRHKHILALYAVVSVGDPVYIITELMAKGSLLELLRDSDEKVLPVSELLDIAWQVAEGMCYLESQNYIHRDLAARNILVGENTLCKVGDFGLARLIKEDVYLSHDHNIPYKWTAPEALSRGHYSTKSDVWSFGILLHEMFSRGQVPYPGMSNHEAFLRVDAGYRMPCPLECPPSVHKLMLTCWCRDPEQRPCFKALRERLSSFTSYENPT

[7] = target: T5, Serine/threonine-protein kinase TBK1 (Homo sapiens, UniProt Q9UHD2)
T5 sequence (Q9UHD2 whole entry): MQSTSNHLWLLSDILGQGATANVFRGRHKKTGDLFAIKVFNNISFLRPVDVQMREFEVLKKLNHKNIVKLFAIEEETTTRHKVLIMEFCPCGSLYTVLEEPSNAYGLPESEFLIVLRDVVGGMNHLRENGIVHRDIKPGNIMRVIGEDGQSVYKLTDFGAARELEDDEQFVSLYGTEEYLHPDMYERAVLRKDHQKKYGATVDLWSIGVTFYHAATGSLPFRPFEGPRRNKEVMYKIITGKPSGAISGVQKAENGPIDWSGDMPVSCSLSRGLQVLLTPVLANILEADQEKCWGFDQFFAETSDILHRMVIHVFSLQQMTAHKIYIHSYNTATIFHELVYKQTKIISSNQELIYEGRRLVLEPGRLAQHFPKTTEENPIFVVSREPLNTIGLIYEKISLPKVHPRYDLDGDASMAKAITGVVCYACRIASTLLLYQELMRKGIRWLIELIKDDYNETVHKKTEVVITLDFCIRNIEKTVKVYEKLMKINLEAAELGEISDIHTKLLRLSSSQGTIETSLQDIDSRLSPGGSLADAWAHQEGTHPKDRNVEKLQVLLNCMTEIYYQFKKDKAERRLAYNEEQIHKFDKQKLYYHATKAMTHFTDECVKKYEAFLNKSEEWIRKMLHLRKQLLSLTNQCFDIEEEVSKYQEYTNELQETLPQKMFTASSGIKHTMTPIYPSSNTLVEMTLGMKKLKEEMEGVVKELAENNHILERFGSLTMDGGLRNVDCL
Also: in the data inactive means no Kd found up to 30 µM.

Sequence of Mitotic checkpoint serine/threonine-protein kinase BUB1 (O43683 whole entry): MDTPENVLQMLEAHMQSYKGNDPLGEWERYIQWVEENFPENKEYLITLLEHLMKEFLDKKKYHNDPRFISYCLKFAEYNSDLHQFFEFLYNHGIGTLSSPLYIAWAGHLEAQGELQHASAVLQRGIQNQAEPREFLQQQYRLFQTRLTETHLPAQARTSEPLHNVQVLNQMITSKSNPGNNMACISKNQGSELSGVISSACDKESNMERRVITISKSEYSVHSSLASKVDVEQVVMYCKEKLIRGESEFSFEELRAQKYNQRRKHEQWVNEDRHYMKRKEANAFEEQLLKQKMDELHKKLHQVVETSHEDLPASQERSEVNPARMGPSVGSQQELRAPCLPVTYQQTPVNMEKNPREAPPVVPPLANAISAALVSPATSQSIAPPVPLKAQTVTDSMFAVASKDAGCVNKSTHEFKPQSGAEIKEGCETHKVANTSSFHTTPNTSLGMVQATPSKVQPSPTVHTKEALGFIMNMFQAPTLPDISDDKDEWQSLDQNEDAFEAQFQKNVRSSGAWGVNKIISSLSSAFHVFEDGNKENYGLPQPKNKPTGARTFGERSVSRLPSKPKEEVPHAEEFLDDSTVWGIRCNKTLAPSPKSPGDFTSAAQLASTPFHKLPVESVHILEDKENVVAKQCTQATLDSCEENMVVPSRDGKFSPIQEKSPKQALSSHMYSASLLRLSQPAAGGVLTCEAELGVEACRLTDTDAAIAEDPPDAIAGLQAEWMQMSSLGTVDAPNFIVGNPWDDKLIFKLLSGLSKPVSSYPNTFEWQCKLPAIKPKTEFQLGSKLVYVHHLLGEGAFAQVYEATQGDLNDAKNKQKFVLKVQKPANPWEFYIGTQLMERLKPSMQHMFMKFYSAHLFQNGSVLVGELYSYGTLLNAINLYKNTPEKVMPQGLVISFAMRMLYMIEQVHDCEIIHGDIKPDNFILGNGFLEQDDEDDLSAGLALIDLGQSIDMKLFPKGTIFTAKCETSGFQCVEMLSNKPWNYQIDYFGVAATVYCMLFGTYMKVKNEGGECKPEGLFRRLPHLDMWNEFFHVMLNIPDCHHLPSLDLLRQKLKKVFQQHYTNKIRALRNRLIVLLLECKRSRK

Structure (SMILES): COc1cc2ncnc3c2cc1OCCCCCN(C)Cc1ccc(Br)cc1N3 [JNJ-26483327]
- Kd [1]: > 30 µM (inactive)
- Kd (dCTP pyrophosphatase 1): > 30 µM (inactive)
- Kd [2]: > 30 µM (inactive)
- Kd [3]: > 30 µM (inactive)
- Kd [4]: > 30 µM (inactive)
- Kd [5]: > 30 µM (inactive)
- Kd [6]: > 30 µM (inactive)
- Kd [7]: > 30 µM (inactive)

Structure (SMILES): COc1cc2ncnc(Nc3ccc(F)c(Cl)c3)c2cc1NC(=O)/C=C/CN1CCCCC1 [DACOMITINIB ANHYDROUS]
- Kd [1]: > 30 µM (inactive)
- Kd (dCTP pyrophosphatase 1): > 30 µM (inactive)
- Kd [2]: > 30 µM (inactive)
- Kd [3]: > 30 µM (inactive)
- Kd [4]: > 30 µM (inactive)
- Kd [5]: > 30 µM (inactive)
- Kd [6]: > 30 µM (inactive)
- Kd [7]: > 30 µM (inactive)

Structure (SMILES): C#Cc1cccc(Nc2ncnc3cc4c(cc23)OCCOCCOCCO4)c1 [ICOTINIB]
- Kd [1]: 2.91 µM (active)
- Kd (dCTP pyrophosphatase 1): > 30 µM (inactive)
- Kd [2]: > 30 µM (inactive)
- Kd [3]: > 30 µM (inactive)
- Kd [4]: > 30 µM (inactive)
- Kd [5]: > 30 µM (inactive)
- Kd [6]: > 30 µM (inactive)
- Kd [7]: > 30 µM (inactive)

Structure (SMILES): Cc1cc(C(=O)Nc2cc(Oc3ccc4nc(NC(=O)C5CC5)cn4n3)ccc2C)n(C)n1 [TAK-593]
- Kd [1]: > 30 µM (inactive)
- Kd (dCTP pyrophosphatase 1): > 30 µM (inactive)
- Kd [2]: > 30 µM (inactive)
- Kd [3]: > 30 µM (inactive)
- Kd [4]: > 30 µM (inactive)
- Kd [5]: > 30 µM (inactive)
- Kd [6]: > 30 µM (inactive)
- Kd [7]: > 30 µM (inactive)

Structure (SMILES): C[C@]1(O)C[C@@H](c2nc(-c3ccc4ccc(-c5ccccc5)nc4c3)c3c(N)nccn32)C1 [LINSITINIB]
- Kd [1]: > 30 µM (inactive)
- Kd (dCTP pyrophosphatase 1): > 30 µM (inactive)
- Kd [2]: > 30 µM (inactive)
- Kd [3]: 6.56 µM (active)
- Kd [4]: > 30 µM (inactive)
- Kd [5]: > 30 µM (inactive)
- Kd [7]: > 30 µM (inactive)

Structure (SMILES): COc1cc2ncnc(Nc3ccc(O)cc3)c2cc1OC [WHI-P131]
- Kd [1]: > 30 µM (inactive)
- Kd (dCTP pyrophosphatase 1): > 30 µM (inactive)
- Kd [2]: > 30 µM (inactive)
- Kd [3]: > 30 µM (inactive)
- Kd [4]: > 30 µM (inactive)
- Kd [5]: > 30 µM (inactive)
- Kd [6]: > 30 µM (inactive)
- Kd [7]: > 30 µM (inactive)

Structure (SMILES): O=C(O)c1ccc2c(c1)nc(Nc1cccc(Cl)c1)c1ccncc12 [SILMITASERTIB]
- Kd (dCTP pyrophosphatase 1): > 30 µM (inactive)
- Kd [2]: > 30 µM (inactive)
- Kd [3]: > 30 µM (inactive)
- Kd [4]: > 30 µM (inactive)
- Kd [5]: > 30 µM (inactive)
- Kd [6]: > 30 µM (inactive)
- Kd [7]: > 30 µM (inactive)

Structure (SMILES): O[C@H]1CC[C@H](Nc2ncc3nc(Nc4c(F)cc(F)cc4F)n([C@H]4CCOC4)c3n2)CC1 [TANZISERTIB]
- Kd [1]: > 30 µM (inactive)
- Kd (dCTP pyrophosphatase 1): > 30 µM (inactive)
- Kd [2]: > 30 µM (inactive)
- Kd [3]: > 30 µM (inactive)
- Kd [4]: > 30 µM (inactive)
- Kd [5]: > 30 µM (inactive)
- Kd [6]: > 30 µM (inactive)
- Kd [7]: > 30 µM (inactive)

Structure (SMILES): S=C(NCc1ccc2c(c1)OCO2)N1CCN(c2ncnc3c2oc2ccccc23)CC1 [AMUVATINIB]
- Kd [1]: > 30 µM (inactive)
- Kd (dCTP pyrophosphatase 1): > 30 µM (inactive)
- Kd [3]: > 30 µM (inactive)
- Kd [4]: > 30 µM (inactive)
- Kd [5]: > 30 µM (inactive)
- Kd [6]: > 30 µM (inactive)
- Kd [7]: > 30 µM (inactive)

Structure (SMILES): CCOc1ccn(-c2ccc(F)cc2)c(=O)c1C(=O)Nc1ccc(Oc2ccnc(N)c2Cl)c(F)c1 [BMS-777607]
- Kd (dCTP pyrophosphatase 1): > 30 µM (inactive)
- Kd [2]: > 30 µM (inactive)
- Kd [3]: 2.08 µM (active)
- Kd [4]: > 30 µM (inactive)
- Kd [5]: > 30 µM (inactive)
- Kd [6]: > 30 µM (inactive)
- Kd [7]: > 30 µM (inactive)

Structure (SMILES): C=CC(=O)Nc1cccc(Nc2nc(Nc3ccc(N4CCN(C(C)=O)CC4)cc3OC)ncc2C(F)(F)F)c1 [ROCILETINIB]
- Kd (dCTP pyrophosphatase 1): > 30 µM (inactive)
- Kd [2]: > 30 µM (inactive)
- Kd [3]: > 30 µM (inactive)
- Kd [4]: > 30 µM (inactive)
- Kd [5]: > 30 µM (inactive)
- Kd [6]: > 30 µM (inactive)
- Kd [7]: > 30 µM (inactive)

Structure (SMILES): NC[C@@](O)(c1ccc(Cl)cc1)c1ccc(-c2cn[nH]c2)cc1 [AT-13148]
- Kd (dCTP pyrophosphatase 1): > 30 µM (inactive)
- Kd [2]: > 30 µM (inactive)
- Kd [3]: > 30 µM (inactive)
- Kd [4]: > 30 µM (inactive)
- Kd [5]: > 30 µM (inactive)
- Kd [6]: > 30 µM (inactive)
- Kd [7]: > 30 µM (inactive)
